Patent US12673039B2, “Methods of inducing autophagy using coumarin derivatives and related compounds” (Buck Institute for Research on Aging, priority 2019, dated 2026)

Assays:
[1] = tested on: TFEB; assay: qPCR of TFEB and downstream target genes in differentiated SY5Y cells; assay type: cell-based, human; conditions: qPCR (FIG. 6)
Source text: Relative expression of TFEB and downstream target genes as assessed by qPCR from mRNA extracted from differentiated SY5Y cells treated with C1 (AIC106) versus vehicle-treated controls. Values represent fold induction versus controls, *p<0.01. Run in triplicate in 3 independent experiments.
In vitro drug screening studies. […] We utilized for these studies a 3000 compound natural product derivative library (Timtec, Newark, DE) in […] transfected with a sensitive TFEB promotor-Gaussian luciferase construct. […] C1 is a coumarin-related compound, part of a family of natural benzopyrones found in many edible plants.

[2] = tested on: UA44 worms; assay: Dopaminergic neuronal loss in UA44 worms expressing human α-synuclein; assay type: in vivo, C. elegans
Source text: Panel A) Dopaminergic neuronal loss in day-5 UA44 worms was quantified by scoring percentage of worms with intact 4-CEP neurons in AIC106 and DMSO-control treatment.

[3] = tested on: TFEB; assay: qRT-PCR of tfeb and its targets in N27 neuronal cells; assay type: cell-based, rat
Description: FIG. 18, panels A-F: AIC106 (Autophagy Inducing Coumarin-106) induces transcription of TFEB and its targets in vitro in rat N27 neuronal cells and in vivo in C. elegans. Panel A) Relative fold change in TFEB promoter activity compared to DMSO-control was determined by quantifying luciferase activity in supernatants collected from rat N27 neuronal cells post-24 hour treatment with C1 (AIC106), D1 and D2. [n=3 independent experiments (mean±SEM), **p<0.01, by one-way ANOVA with Dunnett's multiple comparisons test]. Panel B) Chemical structure of AIC106 and its structural derivative D1 and D2. Panel C) Relative fold change in mRNA of tfeb and its targets compared to DMSO-control were quantified using qRT-PCR in N27 neuronal cells post-24 hour treatment with AIC106 [N=3 independent experiments (mean±SD). *p<0.05, **p<0.01 and ****p<0.0001, by two-way ANOVA with Sidak's multiple comparisons test]. Panel D) Changes in HLH-30 expression were measured by quantifying GFP intensity in an individual GFP-tagged HLH-30 strain (MAH235) post-24 hours treatment with AIC106 and DMSO-control. […] Panel E) HLH-30; GFP (MAH235) were monitored by fluorescence microscopy. Panel F) Relative fold change in mRNA of hlh-30 and its targets compared to DMSO-control were quantified using qRT-PCR in young adult wild type N2 worms post-24 hours treatment with AIC106. […]

O=c1oc2c3c4c(cc2c2c1CCC2)CCCN4CCC3 [C1, 2,3,6,7,10,11-Hexahydro-1H,5H-cyclopenta(3,4)(1)benzopyrano(6,7,8-ij)quinolizin-12(9H)-one]
TFEB expression [1]: significant dose-dependent elevations in TFEB expression | downstream TFEB target genes [1]: up-regulation of several downstream TFEB target genes | neuronal loss ([2]; strain expressing human α-synuclein within dopaminergic neurons): prevented neuronal loss | neuroprotection ([2]; worms treated with hlh-30 RNAi): failed to show any neuroprotection | TFEB mRNA levels ([3]; 24 hour treatment): increased TFEB mRNA levels | downstream TFEB target genes expression ([3]; 24 hour treatment (FIG. 18, panel C)): increased expression of downstream TFEB target genes
